Laboratory results as given in ChEMBL document CHEMBL1201862, “PubChem BioAssay data set” (2004).
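Where inhibition never reached the appropriate level, the endpoint shown equals the highest concentration tested. Otherwise, values were interpolated linearly from a five-concentration, 48-hour dose response in 96-well plates. The concentration for 50% growth inhibition is given as GI50.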 The source made the active and inactive calls. Cut-off read from the data, not from the text of the source: active = GI50 up to about 1.1 µM and inactive = higher.

Assays:
Assay in all cases: NCI-60 cell line screen, 48 h
[1] = tested on: CCRF-CEM
[2] = tested on: SK-MEL-2
[3] = tested on: OVCAR-8
[4] = tested on: T47D
[5] = tested on: A549
[6] = tested on: U-251
[7] = tested on: OVCAR-5
[8] = tested on: BT-549
[9] = tested on: OVCAR-4
[10] = tested on: NCI-H522
[11] = tested on: HCT-116
[12] = tested on: TK-10
[13] = tested on: SR
[14] = tested on: NCI-H23
[15] = tested on: SK-MEL-28
[16] = tested on: MDA-MB-435
[17] = tested on: NCI-H460
[18] = tested on: UACC-62
[19] = tested on: HCC 2998
[20] = tested on: DU-145
[21] = tested on: IGROV-1
[22] = tested on: UACC-257
[23] = tested on: HOP-92
[24] = tested on: SK-OV-3
[25] = tested on: MOLT-4
[26] = tested on: HCT-15
[27] = tested on: PC-3
[28] = tested on: SN12C
[29] = tested on: EKVX
[30] = tested on: LOX IMVI
[31] = tested on: SW-620
[32] = tested on: RPMI-8226
[33] = tested on: MCF7
[34] = tested on: CAKI-1
[35] = tested on: Hs-578T
[36] = tested on: HL-60
[37] = tested on: HT-29
[38] = tested on: NCI/ADR-RES
[39] = tested on: SF-295
[40] = tested on: SK-MEL-5
[41] = tested on: MDA-MB-231
[42] = tested on: MDA-N
[43] = tested on: SF-539
[44] = tested on: OVCAR-3
[45] = tested on: KM12
[46] = tested on: RXF 393
[47] = tested on: M14
[48] = tested on: COLO 205
[49] = tested on: ACHN
[50] = tested on: SF-268
[51] = tested on: SNB-75
[52] = tested on: K562
[53] = tested on: UO-31
[54] = tested on: 786-0
[55] = tested on: A498
[56] = tested on: Malme-3M
[57] = tested on: HOP-62
[58] = tested on: NCI-H226
[59] = tested on: SNB-19

For `CSC1=Nc2ccccc2N(C)c2c1c(-c1ccccc1)nn2C`, the GI50 [1] was 22.1 µM (inactive), the GI50 [2] was 23.2 µM (inactive) and the GI50 [3] was 32.7 µM (inactive). The GI50 [4] was 9.79 µM (inactive), the GI50 [5] was 50.4 µM (inactive) and the GI50 [6] was 31.4 µM (inactive). For the same compound, the GI50 [7] was > 100 µM (inactive), the GI50 [8] was 57.7 µM (inactive) and the GI50 [9] was 43.1 µM (inactive). For the same compound, the GI50 [10] was 7.4 µM (inactive), the GI50 [11] was 22.1 µM (inactive) and the GI50 [12] was 66.8 µM (inactive). The GI50 [13] was 16.1 µM (inactive), the GI50 [14] was 14.1 µM (inactive) and the GI50 [15] was > 100 µM (inactive). For the same compound, the GI50 [16] was 28.4 µM (inactive), the GI50 [17] was 21.9 µM (inactive) and the GI50 [18] was 35.2 µM (inactive). The GI50 [19] was 13.3 µM (inactive), the GI50 [20] was 91.6 µM (inactive) and the GI50 [21] was 42.9 µM (inactive). For the same compound, the GI50 [22] was 73.1 µM (inactive), the GI50 [23] was 29.5 µM (inactive) and the GI50 [24] was 37.3 µM (inactive). For the same compound, the GI50 [25] was 8.99 µM (inactive), the GI50 [26] was 56.9 µM and the GI50 [27] was 35.1 µM (inactive). The GI50 [28] was 54.5 µM (inactive), the GI50 [29] was 65.5 µM (inactive) and the GI50 [30] was 29.1 µM (inactive). The GI50 [31] was 40.6 µM (inactive), the GI50 [32] was 12.7 µM (inactive) and the GI50 [33] was 23.8 µM (inactive). The GI50 [34] was > 100 µM (inactive), the GI50 [35] was 68.9 µM (inactive) and the GI50 [36] was 15.2 µM (inactive). For the same compound, the GI50 [37] was 21.7 µM (inactive), the GI50 [38] was 21.8 µM (inactive) and the GI50 [39] was 4.94 µM (inactive). For the same compound, the GI50 [40] was 17.8 µM (inactive), the GI50 [41] was 45.2 µM (inactive) and the GI50 [42] was 27.7 µM (inactive). For the same compound, the GI50 [43] was 63.7 µM (inactive), the GI50 [44] was 15.2 µM (inactive) and the GI50 [45] was 21.8 µM (inactive). For the same compound, the GI50 [46] was 15.6 µM (inactive), the GI50 [47] was 41.9 µM (inactive) and the GI50 [48] was 38 µM (inactive). The GI50 [49] was 29.9 µM (inactive), the GI50 [50] was 17 µM (inactive) and the GI50 [51] was > 100 µM (inactive). For the same compound, the GI50 [52] was 17.8 µM (inactive).

For `CC(=O)OCCCCn1cnc2c(Cl)nc(Nc3ccccc3)nc21`, the GI50 [1] was > 100 µM (inactive), the GI50 [3] was > 100 µM (inactive) and the GI50 [4] was > 100 µM (inactive). The GI50 [5] was > 100 µM (inactive), the GI50 [53] was > 100 µM (inactive) and the GI50 [6] was > 100 µM (inactive). The GI50 [7] was > 100 µM (inactive), the GI50 [8] was > 100 µM (inactive) and the GI50 [9] was > 100 µM (inactive). For the same compound, the GI50 [10] was 16.5 µM (inactive), the GI50 [11] was > 100 µM (inactive) and the GI50 [12] was > 100 µM (inactive). For the same compound, the GI50 [13] was > 100 µM (inactive), the GI50 [14] was 54.7 µM (inactive) and the GI50 [15] was > 100 µM (inactive). The GI50 [16] was > 100 µM (inactive), the GI50 [17] was > 100 µM (inactive) and the GI50 [54] was > 100 µM (inactive). The GI50 [18] was > 100 µM (inactive), the GI50 [19] was 42.9 µM (inactive) and the GI50 [20] was > 100 µM (inactive). For the same compound, the GI50 [21] was > 100 µM (inactive), the GI50 [22] was > 100 µM (inactive) and the GI50 [25] was > 100 µM (inactive). The GI50 [26] was over 100 µM, the GI50 [27] was > 100 µM (inactive) and the GI50 [28] was > 100 µM (inactive). The GI50 [29] was > 100 µM (inactive), the GI50 [30] was > 100 µM (inactive) and the GI50 [31] was > 100 µM (inactive). For the same compound, the GI50 [32] was > 100 µM (inactive), the GI50 [33] was > 100 µM (inactive) and the GI50 [34] was 18.7 µM (inactive). The GI50 [35] was > 100 µM (inactive), the GI50 [36] was > 100 µM (inactive) and the GI50 [37] was > 100 µM (inactive). The GI50 [55] was > 100 µM (inactive), the GI50 [56] was > 100 µM (inactive) and the GI50 [38] was > 100 µM (inactive). For the same compound, the GI50 [39] was > 100 µM (inactive), the GI50 [40] was 65.6 µM (inactive) and the GI50 [57] was > 100 µM (inactive). For the same compound, the GI50 [41] was > 100 µM (inactive), the GI50 [42] was > 100 µM (inactive) and the GI50 [43] was > 100 µM (inactive). For the same compound, the GI50 [44] was > 100 µM (inactive), the GI50 [45] was > 100 µM (inactive) and the GI50 [48] was > 100 µM (inactive). For the same compound, the GI50 [58] was > 100 µM (inactive), the GI50 [49] was > 100 µM (inactive) and the GI50 [52] was > 100 µM (inactive).

For `N#Cc1c(Nc2ccc(F)cc2)[n+]([O-])c2ccc(Cl)cc2[n+]1[O-]`, the GI50 [1] was 2.62 µM (inactive), the GI50 [2] was 3.67 µM (inactive) and the GI50 [3] was 3.55 µM (inactive). The GI50 [4] was 2.89 µM (inactive), the GI50 [5] was 0.568 µM (active) and the GI50 [53] was 4.58 µM (inactive). The GI50 [6] was 2.38 µM (inactive), the GI50 [8] was 8.93 µM (inactive) and the GI50 [59] was 6 µM (inactive). The GI50 [9] was 2.03 µM (inactive), the GI50 [11] was 3.05 µM (inactive) and the GI50 [12] was 19.9 µM (inactive). For the same compound, the GI50 [13] was 1.57 µM (inactive), the GI50 [14] was 3.84 µM (inactive) and the GI50 [15] was 16.1 µM (inactive). The GI50 [16] was 4.04 µM (inactive), the GI50 [17] was 2.38 µM (inactive) and the GI50 [54] was 3.34 µM (inactive). For the same compound, the GI50 [18] was 3.66 µM (inactive), the GI50 [20] was 11.8 µM (inactive) and the GI50 [21] was 1.33 µM (inactive). For the same compound, the GI50 [22] was 2.91 µM (inactive), the GI50 [23] was 2.14 µM (inactive) and the GI50 [24] was 4.06 µM (inactive). The GI50 [25] was 2.52 µM (inactive), the GI50 [26] was 2.5 µM and the GI50 [27] was 4.81 µM (inactive). The GI50 [28] was 2.55 µM (inactive), the GI50 [30] was 0.975 µM (active) and the GI50 [31] was 3.78 µM (inactive). The GI50 [32] was 2.72 µM (inactive), the GI50 [33] was 2.11 µM (inactive) and the GI50 [34] was 3.18 µM (inactive). The GI50 [35] was 38.3 µM (inactive), the GI50 [37] was 3.47 µM (inactive) and the GI50 [55] was 2.88 µM (inactive). The GI50 [56] was 27.5 µM (inactive), the GI50 [38] was 1.9 µM (inactive) and the GI50 [39] was 1.85 µM (inactive). The GI50 [40] was 3.91 µM (inactive), the GI50 [57] was 4.52 µM (inactive) and the GI50 [41] was 2.66 µM (inactive). For the same compound, the GI50 [42] was 6.73 µM (inactive), the GI50 [43] was 2.56 µM (inactive) and the GI50 [44] was 2.62 µM (inactive). For the same compound, the GI50 [45] was 5.57 µM (inactive), the GI50 [46] was 4.36 µM (inactive) and the GI50 [47] was 3.36 µM (inactive). For the same compound, the GI50 [48] was 1.95 µM (inactive), the GI50 [58] was 4.51 µM (inactive) and the GI50 [50] was 2.53 µM (inactive). The GI50 [51] was 17.7 µM (inactive) and the GI50 [52] was 2.47 µM (inactive).
